Earlier results, collected in patent publication US4127519A, “Octadecapeptides, intermediates therefor, and compositions and methods employing said octadecapeptides” (priority 1977, dated 1978).

Experiments:
[1] = injected directly into the brain of the rat
[2] = tested on: brain opiate receptor sites

H-Tyr-Gly-Gly-Phe-Met-OH [methionine enkephalin]
analgesic activity [1]: weak analgesic agent of short duration
binding to partially purified brain opiate receptor sites [2]: binds stereo-specifically
